Measured values: patent US20120071464A1, “METHOD OF TREATMENT OF OBSESSIVE COMPULSIVE DISORDER WITH ONDANSETRON” (priority 2009, published 2012)
Several values for one entry are separate records, joined by “and”; a condition that tells them apart may be missing. Identical values can stand only once. Entries after “also recorded” stand apart in the source; their conditions may differ.

Tests used:
[1] = test system: OCD patients resistant to SRI plus antipsychotic therapy; assay: Ondansetron augmentation therapy (SRI and antipsychotic), single-blind 12-week study; assay type: in vivo, human
Description: Between March 2008 and November 2008, fourteen adults aged 18 to 55 were enrolled in a study at the Institute for Neuroscience, Florence, Italy. […] All diagnoses were established utilizing a structured interview, the Structured Clinical Interview for DSM IV Axis I Disorders (SCID I). (See Spitzer, R. L. et al. ARCH GEN PSYCHIATRY 49(8):624-649) Potential subjects with a history of alcohol or substance abuse, current severe depressive symptoms, bipolar disorder, panic disorder, schizophrenia, other psychiatric conditions, heart disease, arrhythmia, liver problems (including cirrhosis), seizures, glaucoma or serious medical disease were excluded. Patients with hoarding as their only OCD symptom and women of childbearing potential not using a medically acceptable contraceptive method were also excluded. After being fully informed about the study and signing an informed consent approved by the Internal Institutional Review Board, subjects were administered an ondansetron hydrochloride (oral solution) dosage of 0.25 mg twice a day for 6 weeks, followed by 0.5 mg twice a day for 6 weeks for a total observation period of 12 weeks. […] The Y-BOCS, Montgomery-Asberg Depression Rating Scale (MADRS) (see Montgomery, S. A., BR J PSYCHIATRY 1979; 134:382-389) was administered at screening and baseline, and these assessments were repeated at every follow-up visit at 2-week intervals, along with the Clinical Global Impressions-Improvement (CGI-I) rating (see Guy, W. ECDEU Assessment Manual for Psychopharmacology. US Dept Health, Education, and Welfare publication (ADM) 76-338. Rockville, Md.: National Institute of Mental Health; 1976:218-222) and an unpublished Drug Effect scale. The Drug Effect scale asked subjects to rate “How anxious are you now?” on a scale of zero (not at all) to 10 (“the most anxious I have ever been”). Similar rating questions have been “Do you experience appearance or increment in frequency of headaches?”, “Do you experience appearance or increment in frequency of headaches fatigue?” and “Do you experience appearance or increment in frequency of headaches constipation” and so on regarding other common ondansetron side effects (diarrhea, urinary retention, itching, and dizziness). Furthermore, each evening during the first week of study medication, a study psychiatrist called the subject to ask for major or unexpected collateral effects (as chest pain, an unexplained skin rash, or tremors.). […] (See […]. et al., Am J PSYCHIATRY 1997; 154:320-321) Subjects with MADRS scores ≧18 were excluded. Ratings were administered by an investigator who was blind to the treatment condition of the patients. Given the small sample size, mean changes from baseline in rating scales were tested with a non-parametric method based on ranks (Wilcoxon signed rank test), using a two-tailed significance level of p≦0.05. Relationships among rated and demographical variables were tested with Spearman's rank correlation tests, using a two-tailed significance level of p≦0.05. Age, baseline OCD severity, and depressive symptoms were controlled for by stratifying through the Mantel-Haenszel χ2 test. Body mass index (BMI) was adjusted given the differences of ondansetron bioavailability according to BMI.

[2] = test system: patients with treatment-resistant OCD under stable treatment with SRIs; assay: Ondansetron augmentation therapy (SRI), single-blind 12-week study with 4-week discontinuation follow-up; assay type: in vivo, human; parameters: average reduction in CGI scores for the whole group / YBOCS % Reduction, 6 Weeks: concentration or dose not given beside the values; details: for worsening of YBOCS symptoms during the discontinuation phase: after Week 12
Protocol: Twenty-one patients with a DSM-IV diagnosis of treatment-resistant OCD, under stable treatment with SRIs approved by the FDA for OCD therapy, received 12 weeks of single-blind ondansetron augmentation initiated at a dose of 0.25 mg twice daily for 2 weeks, and titrated to 0.5 mg twice daily for 10 weeks. Patients were rated every two weeks using the Yale Brown Obsessive Compulsive Scale (YBOCS) and Clinical Global Impressions Scale (CGI). Treatment-resistant patients were defined as having completed an adequate trial of SRIs at a moderate to high dose for at least 12 weeks and still having a YBOCS severity of >24, and CGI-Severity of ≧4. Treatment response was defined as an additional 25% reduction in YBOCS score from YBOCS score at the initiation of ondansetron augmentation, an end of treatment (EOT) period YBOCS of ≦24, and CGI-Improvement (CGI-I) of ≦2. Additionally, ondansetron was discontinued after 12 weeks and patients were followed up for another 4 weeks for relapse in YBOCs symptoms.

[3] = test system: mesenteric bed or the nerves in the heart; details: animal studies; cited from earlier work
[4] = end of 6th week, non responders (n = 5)
[5] = end of 6th week, responders (n = 9)
[6] = end of 12th week, non responders (n = 5)
[7] = end of 12th week, responders (n = 9)
[8] = individual patients 1-14, versus baseline
[9] = end of 6th week, non responders (n = 9)
[10] = end of 12th week, non responders (n = 9)
[11] = end of 12th week, responders (n = 12)
[12] = individual patients, versus baseline
[13] = individual patients, EC: week 1 score carried forward

decreased appetite (number of patients) ([1]; first 2 weeks of treatment): two
headache (number of patients) ([1]; first 2 weeks of treatment): two
mild increase in anxiety levels (number of patients) ([1]; lasted only one night): One
Compound: Cc1nccn1CC1CCc2c(c3ccccc3n2C)C1=O (stereo not drawn) [ondansetron]
average YBOCS score change of the whole group (decrease) ([1]; 6 weeks, n = 14): 16%
YBOCS score decrease, Patient 11 ([1]; 12th week, with citalopram 60 mg/day and risperidone 2 mg/day): 35%
responders to ondansetron among patients on risperidone ([1]; 12 weeks, six of seven patients): 86%
side effects throughout the study (severity) ([1]; 12 weeks, up to 1 mg/day): mild to moderate
patients meeting YBOCS criteria for treatment response (reduction >25%) ([1]; end of 6th week, 3/14 patients): 21.4%
CGI (mean, SD) [1, 4]: 4.6 (1.5)
MADRS (mean, SD) [1, 4]: 8.0 (4.0)
YBOCS (mean, SD) [1, 4]: 22.8 (3.8)
CGI (mean, SD) [1, 5]: 3.4 (1.6)
MADRS (mean, SD) [1, 5]: 6.7 (2.4)
YBOCS (mean, SD) ([1]; end of 6th week, responders (n = 9), 0.25 mg twice a day added to SRI + antipsychotic): 22.6 (4.2)
CGI (mean, SD) [1, 6]: 4.8 (1.3)
MADRS (mean, SD) [1, 6]: 7.6 (3.8)
YBOCS (mean, SD) [1, 6]: 21.4 (6.1)
CGI (mean, SD) [1, 7]: 2.3 (1.2)
MADRS (mean, SD) [1, 7]: 6.8 (2.0)
YBOCS (mean, SD) ([1]; end of 12th week, responders (n = 9), 0.5 mg twice a day in weeks 7-12): 20.8 (4.1)
average YBOCS change score of the whole group (decrease) ([1]; end of 12 weeks, n = 14): 23% and 23.2%
significant side effects ([1]; fourteen subjects): None of the fourteen subjects experienced significant side effects or worsening of OC symptoms; also recorded: None of the subjects experienced significant or lasting side effects
Mean MADRS scores ([1]; from baseline to the end of week 1): did not change significantly
YBOCS Score, 6 Weeks ([1]; individual patients 1-14): 25 (3×) and 28 and 17 (2×) and 16 and 27 and 26 and 24 (3×) and 19 and 21
YBOCS Score, 12 Weeks ([1]; individual patients 1-14): 25 (3×) and 15 (2×) and 14 and 30 and 23 and 22 (2×) and 24 and 18 and 17 and 20
Percent Reduction at 6 weeks (YBOCS) [1, 8]: 3.84% and 28.57% and 20.00% (2×) and 15.00% and 12.90% and 21.20% and 31.42% and 27.27% and 20.80% and 4.54% and 10.52% and .00% and 19.32%
Percent Reduction at 12 weeks (YBOCS) [1, 8]: 3.84% and 28.57% (2×) and 25.00% (2×) and 30.00% and 3.22% and 27.27% (2×) and 37.14% and 22.72% and 21.05% and 16.60% and 29.03%
Clinical Global Impressions-Improvement (CGI-I) scores ([1]; through week 12 (FIG. 4)): improved concurrent with improvement in the YBOCS scores
mean pulse rate or mean blood pressure ([1]; throughout the study): No change
course after discontinuation of the ondansetron ([1]; two responder patients): experienced worsening
tolerability of treatment ([2]; 12 weeks, up to 0.5 mg twice daily): well tolerated
% Decrease in YBOCS Scores ([2]; All Patients, week 2): 12.66%
Avg YBOCS Scores ([2]; All Patients, week 2): 26.29
% Decrease in YBOCS Scores ([2]; All Patients, week 4): 16.93%
Avg YBOCS Scores ([2]; All Patients, week 4): 25
% Decrease in YBOCS Scores ([2]; All Patients, week 6): 19.3%
Avg YBOCS Scores ([2]; All Patients, week 6): 24.29
% Decrease in YBOCS Scores ([2]; All Patients, week 8): 21.99%
Avg YBOCS Scores ([2]; All Patients, week 8): 23.48
% Decrease in YBOCS Scores ([2]; All Patients, week 10): 24.21%
Avg YBOCS Scores ([2]; All Patients, week 10): 22.81
% Decrease in YBOCS Scores ([2]; All Patients, week 12): 26.27%
Avg YBOCS Scores ([2]; All Patients, week 12): 22.19
Avg YBOCS Scores ([2]; All Patients, week 14 (ondansetron discontinued after week 12)): 24.95
Avg YBOCS Scores ([2]; All Patients, week 16 (ondansetron discontinued after week 12)): 25.43
% Decrease in YBOCS Scores ([2]; Non-Responders, week 2): 2.93%
% Decrease in YBOCS Scores ([2]; Non-Responders, week 4): 2.93%
% Decrease in YBOCS Scores ([2]; Non-Responders, week 6): 2.56%
% Decrease in YBOCS Scores ([2]; Non-Responders, week 8): 2.2%
% Decrease in YBOCS Scores ([2]; Non-Responders, week 10): 1.47%
% Decrease in YBOCS Scores ([2]; Non-Responders, week 12): 2.93%
% Decrease in YBOCS Scores ([2]; Responders, week 2): 20.06%
% Decrease in YBOCS Scores ([2]; Responders, week 4): 27.58%
% Decrease in YBOCS Scores ([2]; Responders, week 6): 32.03%
% Decrease in YBOCS Scores ([2]; Responders, week 8): 37.05%
% Decrease in YBOCS Scores ([2]; Responders, week 10): 41.5%
% Decrease in YBOCS Scores ([2]; Responders, week 12): 44.01%
patients experiencing a treatment response in 12 weeks or less ([2]; Twelve of the 21 patients): 57%
difference between YBOCS score at baseline and after 12 weeks, non-responders ([2]; after 12 weeks): 2.9%
reduction in CGI-I from baseline, responders ([2]; after 12 weeks): 77%
reduction in YBOCS from baseline, responders ([2]; after 12 weeks): 44%
worsening of YBOCS symptoms during the discontinuation phase ([2]; all patients): 14.6%
worsening of YBOCS symptoms during the discontinuation phase ([2]; responders): 38.3%
patients experiencing response within the first 6 weeks ([2]; eight of 21 patients, 25% improvement in YBOCS, EOT YBOCS <24, CGI-I=1-2): 38%
CGI (mean, SD) [2, 9]: 4.63 (0.5)
YBOCS (mean, SD) [2, 9]: 29.56 (4.0)
CGI (mean, SD) ([2]; end of 6th week, responders (n = 12)): 1.92 (0.7)
YBOCS (mean, SD) ([2]; end of 6th week, responders (n = 12), added to SRI): 20.33 (3.8)
CGI (mean, SD) [2, 10]: 4.88 (0.4)
YBOCS (mean, SD) [2, 10]: 29.44 (4.8)
CGI (mean, SD) [2, 11]: 1.17 (0.4)
YBOCS (mean, SD) [2, 11]: 16.75 (2.7)
CGI-I Score, 6 Weeks ([2]; individual patients): 2 (7×) and 3 (2×) and 5 (6×) and 1 (3×) and 4 (3×)
CGI-I Score, 12 Weeks ([2]; individual patients): 1 (10×) and 5 (8×) and 4 and 2 (2×)
YBOCS % Reduction, 6 Weeks [2, 12]: 31.25% and 34.48% and 9.68% and 16.00% and 32.14% and 34.38% and 42.42% and 28.95% and 27.27% and 7.69% and 41.67% and 0.00% (3×) and 5.00% and 37.04% and 19.35% and −3.57% (2×) and 40.74% and 6.06%
YBOCS % Reduction, 12 Weeks [2, 12]: 34.38% and 41.38% and 9.68% and 44.00% and 42.86% and 50.00% and 51.52% and 44.74% and 42.42% and 11.54% and 45.83% and 13.79% and 2.50% and −6.25% and 48.15% and 38.71% and −7.14% and −3.57% and 44.44% and −3.85% and 9.09%
YBOCS Score, 6 Weeks [2, 13]: 22 and 19 (3×) and 28 and 21 (2×) and 27 and 24 (2×) and 14 and 29 (3×) and 38 and 32 and 17 and 25 and 16 and 26 and 31
YBOCS Score, 12 Weeks [2, 13]: 21 (2×) and 17 and 28 and 14 (2×) and 16 (3×) and 19 (2×) and 23 and 13 and 25 and 39 and 34 and 30 (2×) and 29 and 15 and 27
average reduction in CGI scores for the whole group ([2]; n = 21, 12 weeks): 46%
average reduction in YBOCS-rated symptoms of the whole group ([2]; n = 21, 12 weeks): 26.3%
effect on the mesenteric bed or the nerves in the heart [3]: did not appear to have effect on the mesenteric bed or the nerves in the heart
